Drawing on patent US12655142B2 (Merck Patent GmbH, priority 2019, dated 2026), this text covers IC50 and efflux ratio for 23 compounds.

Where only a bound is given, the exact number is not on record here.

The target of one series is T1, c-Kit(V654A) (Homo sapiens, UniProt P10721, V654A).
T1 construct: recombinant human c-Kit, amino acids 544-end containing the V654A mutation; GST (N)
The series can be described thus: c-Kit(V654A) assay (33P-ATP filter binding kinase assay). The format is biochemical. Conditions: recombinant human c-Kit aa 544-end V654A, ATP 200 μM. The method in brief:
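Radiometric filter-binding read-out: substrate 33P incorporation counted by scintillation after P30 filtermat washes in 75 mM phosphoric acid and methanol. Enzyme: N-GST recombinant human c-Kit aa 544-end carrying V654A.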

Series [1] deals with T2, GIST430/654 cell line expressing mutated constitutively active cKIT receptor tyrosine kinase (Δ560-576 deletion and V654A point mutation) (Homo sapiens, UniProt P10721, DEL560-576/V654A).
T2 construct: endogenous in cells; host or cells: GIST430/654 cells
The series can be described thus: Cellular cKIT autophosphorylation (phospho-Y307-cKIT, Luminex bead assay) in GIST430/654 cells. Type of series: cell-based. The note with it: compounds 45 min, read-out: GIST 430/654 IC50. The method in brief: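 GIST430 (Δ560-576) and imatinib-resistant GIST430/654 (plus V654A; grown with 100 nM imatinib) cells were plated in IMDM/15% FCS and treated next day with serially diluted compound for 45 min. Lysates were captured on anti-total-cKIT Luminex beads overnight at 4 °C and probed for phospho-Y307. IC50 was taken from percent of 0.3% DMSO control.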

The nature of series [2]: Determination of Efflux-Ratio (ER) in Caco-2 cells. Conditions: human, Caco-2, pH 7.4. For orientation: Passage across Caco-2 layers is used to estimate intestinal permeability.

T1 sequence (P10721 544-976 V654A): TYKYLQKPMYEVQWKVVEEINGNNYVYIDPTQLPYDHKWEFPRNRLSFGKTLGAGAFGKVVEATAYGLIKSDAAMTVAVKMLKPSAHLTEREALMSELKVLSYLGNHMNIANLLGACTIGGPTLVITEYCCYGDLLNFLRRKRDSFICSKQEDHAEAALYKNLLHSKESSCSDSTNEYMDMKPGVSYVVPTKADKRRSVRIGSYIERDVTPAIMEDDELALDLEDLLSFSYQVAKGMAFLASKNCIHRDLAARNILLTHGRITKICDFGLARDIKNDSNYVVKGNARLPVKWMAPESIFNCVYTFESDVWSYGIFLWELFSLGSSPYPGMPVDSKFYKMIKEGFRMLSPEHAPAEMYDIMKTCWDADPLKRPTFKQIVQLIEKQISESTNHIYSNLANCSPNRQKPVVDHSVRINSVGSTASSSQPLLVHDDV
T2 sequence (P10721 with tags, fused parts or gaps DEL560-576/V654A): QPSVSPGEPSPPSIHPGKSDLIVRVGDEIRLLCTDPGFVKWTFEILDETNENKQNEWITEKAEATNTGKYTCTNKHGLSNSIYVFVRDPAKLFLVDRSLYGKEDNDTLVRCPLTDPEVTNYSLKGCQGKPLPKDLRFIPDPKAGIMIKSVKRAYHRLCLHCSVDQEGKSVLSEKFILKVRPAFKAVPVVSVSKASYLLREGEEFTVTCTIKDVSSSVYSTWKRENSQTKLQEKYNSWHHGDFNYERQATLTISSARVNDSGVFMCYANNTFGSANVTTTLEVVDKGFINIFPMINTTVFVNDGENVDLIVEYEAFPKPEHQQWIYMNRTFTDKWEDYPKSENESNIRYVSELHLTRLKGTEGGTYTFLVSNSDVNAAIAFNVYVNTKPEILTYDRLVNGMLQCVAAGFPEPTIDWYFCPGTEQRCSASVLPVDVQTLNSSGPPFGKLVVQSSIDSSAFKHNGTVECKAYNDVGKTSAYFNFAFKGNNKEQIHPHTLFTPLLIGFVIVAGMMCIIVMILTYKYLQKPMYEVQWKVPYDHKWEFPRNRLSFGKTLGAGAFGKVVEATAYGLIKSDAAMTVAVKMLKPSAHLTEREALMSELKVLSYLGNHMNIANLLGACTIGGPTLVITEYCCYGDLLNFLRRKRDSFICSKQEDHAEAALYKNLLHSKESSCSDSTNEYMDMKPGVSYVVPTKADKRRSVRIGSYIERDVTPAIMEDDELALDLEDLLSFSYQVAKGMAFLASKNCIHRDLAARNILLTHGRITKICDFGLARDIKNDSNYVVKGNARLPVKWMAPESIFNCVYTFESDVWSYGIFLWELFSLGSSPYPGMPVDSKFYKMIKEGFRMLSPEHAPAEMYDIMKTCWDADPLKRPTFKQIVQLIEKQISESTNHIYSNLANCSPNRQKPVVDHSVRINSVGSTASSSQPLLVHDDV

Turning to `CN1CCN(CCOc2ccn3c(-c4cc(NCc5ccc(-c6cnn(C)c6)cc5)ncn4)cnc3c2)C(=O)C1` [A141, 4-methyl-1-[2-({3-[6-({[4-(1-methyl-1H-pyrazol-4-yl)phenyl]methyl}amino)pyrimidin-4-yl]imidazo[1,2-a]pyridin-7-yl}oxy)ethyl]piperazin-2-one], the values for the IC50 (on c-Kit(V654A); in series [1]) were 15 nM and 85 nM, respectively. In addition, the efflux ratio at 2 h, 1 μM in series [2] is more than 50.
For `Cn1cc(-c2ccc(CNc3cc(-c4cnc5cc(OCCCn6cccn6)ccn45)ncn3)cc2)cn1` [A257, N-{[4-(1-methyl-1H-pyrazol-4-yl)phenyl]methyl}-6-{7-[3-(1H-pyrazol-1-yl)propoxy]imidazo[1,2-a]pyridin-3-yl}pyrimidin-4-amine], in that order: 16 nM, 130 nM and less than 15.
The matching figures for `Cn1cc(-c2ccc(CNc3cc(-c4cnc5cc(OCCCN6CCOCC6)ccn45)ncn3)cc2)cn1` [A74, [4-(1-methyl-1H-pyrazol-4-yl)-benzyl]-{6-[7-(3-morpholin-4-yl-propoxy)-imidazo[1,2-a]pyridin-3-yl]-pyrimidin-4-yl}-amine]: 4.8 nM, 49 nM and less than 15.
`CN1CCN(CCOc2ccn3c(-c4cc(NCc5ccc(-c6cnn(C)c6)cc5)ncn4)cnc3c2)CC1` [A61, (6-{7-[2-(4-methyl-piperazin-1-yl)-ethoxy]-imidazo[1,2-a]pyridin-3-yl}-pyrimidin-4-yl)-[4-(1-methyl-1H-pyrazol-4-yl)-benzyl]-amine]: the IC50 on c-Kit(V654A) came to 6.5 nM; in series [1], 34 nM. The efflux ratio at 2 h, 1 μM in series [2] is less than 15.
For `Cn1cc(-c2ccc(CNc3cc(-c4cnc5cc(OCCN6CCn7cccc7C6)ccn45)ncn3)cc2)cn1` [A218, (6-{7-[2-(3,4-dihydro-1H-pyrrolo[1,2-a]pyrazin-2-yl)-ethoxy]-imidazo[1,2-a]pyridin-3-yl}-pyrimidin-4-yl)-[4-(1-methyl-1H-pyrazol-4-yl)-benzyl]-amine], in that order: 11 nM, 200 nM and less than 15.
On to `CC(Nc1cc(-c2cnc3cc(OCCCN4CCC4)ccn23)ncn1)c1ccc(-c2cnn(C)c2)cc1` (centres unmarked) [A249, {6-[7-(3-azetidin-1-yl-propoxy)-imidazo[1,2-a]pyridin-3-yl]-pyrimidin-4-yl}-{1-[4-(1-methyl-1H-pyrazol-4-yl)-phenyl]-ethyl}-amine], for which the IC50 on c-Kit(V654A) came out at 87 nM; in series [1] it was 440 nM. The efflux ratio at 2 h, 1 μM in series [2] was more than 50.
The matching figures for `COCCn1cc(-c2ccc(CNc3cc(-c4cnc5cc(OC)ccn45)ncn3)cc2)cn1` [A19, {4-[1-(2-methoxy-ethyl)-1H-pyrazol-4-yl]-benzyl}-[6-(7-methoxy-imidazo[1,2-a]pyridin-3-yl)-pyrimidin-4-yl]-amine]: 9.4 nM, 71 nM and less than 15.
The matching figures for `CN1CC2CCC(C1)N2CCOc1ccn2c(-c3cc(NCc4ccc(-c5cnn(C)c5)cc4)ncn3)cnc2c1` [A198, (6-{7-[2-(3-methyl-3,8-diaza-bicyclo[3.2.1]oct-8-yl)-ethoxy]-imidazo[1,2-a]pyridin-3-yl}-pyrimidin-4-yl)-[4-(1-methyl-1H-pyrazol-4-yl)-benzyl]-amine]: 10 nM, 120 nM and 15 to 50.
The matching figures for `CN1CC(COc2ccn3c(-c4cc(NCc5ccc(-c6cnn(C)c6)cc5)ncn4)cnc3c2)C1` [A144, N-{[4-(1-methyl-1H-pyrazol-4-yl)phenyl]methyl}-6-{7-[(1-methylazetidin-3-yl)methoxy]imidazo[1,2-a]pyridin-3-yl}pyrimidin-4-amine]: 5.1 nM, 61 nM and more than 50.
As to `Cn1cc(-c2ccc(CNc3cc(-c4cnc5cc(OCCCN6CCN(C7COC7)CC6)ccn45)ncn3)cc2)cn1` [A184, [4-(1-methyl-1H-pyrazol-4-yl)-benzyl]-(6-{7-[3-(4-oxetan-3-yl-piperazin-1-yl)-propoxy]-imidazo[1,2-a]pyridin-3-yl}-pyrimidin-4-yl)-amine], the IC50 on c-Kit(V654A) worked out at 20 nM; in series [1], 76 nM. Moreover, the efflux ratio at 2 h, 1 μM in series [2] is less than 15.
The matching figures for `Cn1cc(-c2ccc(CNc3cc(-c4cnc5cc(OCCN6CCN(C7COC7)CC6)ccn45)ncn3)cc2)cn1` [A65, [4-(1-methyl-1H-pyrazol-4-yl)-benzyl]-(6-{7-[2-(4-oxetan-3-yl-piperazin-1-yl)-ethoxy]-imidazo[1,2-a]pyridin-3-yl}-pyrimidin-4-yl)-amine]: 11 nM, 46 nM and less than 15.
The matching figures for `Cc1nnc2n1CCN(CCOc1ccn3c(-c4cc(NCc5ccc(-c6cnn(C)c6)cc5)ncn4)cnc3c1)C2` [A221, (6-{7-[2-(3-methyl-5,6-dihydro-8H-[1,2,4]triazolo[4,3-a]pyrazin-7-yl)-ethoxy]-imidazo[1,2-a]pyridin-3-yl}-pyrimidin-4-yl)-[4-(1-methyl-1H-pyrazol-4-yl)-benzyl]-amine]: 14 nM, 400 nM and more than 50.
Turning to `Cn1ncc(-c2ccc(CNc3cc(-c4cnc5cc(OCC6CCN(C7CC7)CC6)ccn45)ncn3)cc2)n1` [A186, {6-[7-(1-cyclopropyl-piperidin-4-ylmethoxy)-imidazo[1,2-a]pyridin-3-yl]-pyrimidin-4-yl}-[4-(2-methyl-2H-[1,2,3]triazol-4-yl)-benzyl]-amine], the IC50 on c-Kit(V654A) worked out at 7 nM; in series [1] it was 80 nM. Besides, the efflux ratio at 2 h, 1 μM in series [2] is less than 15.
As to `Cn1cc(-c2ccc(CNc3cc(-c4cnc5cc(OC6CCNCC6)ccn45)ncn3)cc2)cn1` [A164, N-{[4-(1-methyl-1H-pyrazol-4-yl)phenyl]methyl}-6-[7-(piperidin-4-yloxy)imidazo[1,2-a]pyridin-3-yl]pyrimidin-4-amine], the IC50 on c-Kit(V654A) was 9 nM; in series [1], 260 nM.
The matching figures for `COc1ccn2c(-c3cc(NCc4ccc(-c5ncc(C)o5)cc4)ncn3)cnc2c1` [A53, [6-(7-methoxy-imidazo[1,2-a]pyridin-3-yl)-pyrimidin-4-yl]-[4-(5-methyl-oxazol-2-yl)-benzyl]-amine]: 6.3 nM and 340 nM.
For `COCCN1CCC(COc2ccn3c(-c4cc(NCc5ccc(-c6cnn(C)c6)cc5)ncn4)cnc3c2)CC1` [A190], in that order: 3.8 nM and 170 nM.
For the compound `Cn1ncc(-c2ccc(CNc3cc(-c4cnc5cc(OCCN6CC7CC7C6)ccn45)ncn3)cc2)n1` (centres unmarked) [A128, (6-{7-[2-(3-aza-bicyclo[3.1.0]hex-3-yl)-ethoxy]-imidazo[1,2-a]pyridin-3-yl}-pyrimidin-4-yl)-[4-(2-methyl-2H-[1,2,3]triazol-4-yl)-benzyl]-amine], the results for the IC50 (at c-Kit(V654A); in series [1]) were 9.9 nM and 130 nM, respectively.
For `COc1ccn2c(-c3cc(NCc4ccc(-c5cn(C)nc5N)cc4)ncn3)cnc2c1` [A35, [4-(3-amino-1-methyl-1H-pyrazol-4-yl)-benzyl]-[6-(7-methoxy-imidazo[1,2-a]pyridin-3-yl)-pyrimidin-4-yl]-amine], in that order: 71 nM and 890 nM.
As to `Cn1cc(-c2ccc(CNc3cc(-c4cnc5cc(OCCN6CCS(=O)(=O)CC6)ccn45)ncn3)cc2)cn1` [A138, 4-[2-({3-[6-({[4-(1-methyl-1H-pyrazol-4-yl)phenyl]methyl}amino)pyrimidin-4-yl]imidazo[1,2-a]pyridin-7-yl}oxy)ethyl]-1lambda6-thiomorpholine-1,1-dione], the IC50 on c-Kit(V654A) is 6.9 nM; in series [1] it was 64 nM.
Turning to `CN(C)CCOc1ccn2c(-c3cc(NCc4ccc(-c5cnn(C)c5)cc4)ncn3)cnc2c1` [A59, 6-{7-[2-(dimethylamino)ethoxy]imidazo[1,2-a]pyridin-3-yl}-N-{[4-(1-methyl-1H-pyrazol-4-yl)phenyl]methyl}pyrimidin-4-amine], the results for the IC50 (on c-Kit(V654A); in series [1]) were 11 nM and 82 nM, respectively.
For `Cn1cc(-c2ccc(CNc3cc(-c4cnc5cc(OCCN6C[C@@H](F)[C@@H](F)C6)ccn45)ncn3)cc2)cn1` [A209, (6-{7-[2-((3S,4R)-3,4-difluoro-pyrrolidin-1-yl)-ethoxy]-imidazo[1,2-a]pyridin-3-yl}-pyrimidin-4-yl)-[4-(1-methyl-1H-pyrazol-4-yl)-benzyl]-amine], in that order: 9.5 nM and 78 nM.
For `Cn1cc(-c2ccc(COc3cc(-c4cnc5cc(OCCN6CCCC6)ccn45)ncn3)cc2)cn1` [A87, 3-{6-[4-(1-methyl-1H-pyrazol-4-yl)-benzyloxy]-pyrimidin-4-yl}-7-(2-pyrrolidin-1-yl-ethoxy)-imidazo[1,2-a]pyridine], in that order: 11 nM and 500 nM.
For `COc1ccn2c(-c3cc(NCc4ccc(-c5cn(C)nn5)cc4)ncn3)cnc2c1` [A31, [6-(7-methoxy-imidazo[1,2-a]pyridin-3-yl)-pyrimidin-4-yl]-[4-(1-methyl-1H-[1,2,3]triazol-4-yl)-benzyl]-amine], in that order: 49 nM and 810 nM.

Broadly, the efflux ratio is a quotient of directional permeabilities that is used to spot active efflux.
